Patent US9353090B2, “Heterocyclic carboxylic acids as activators of soluble guanylate cyclase” (Boehringer Ingelheim International GmbH, priority 2014, dated 2016)
pEC50: −log10 of the molar value. In brackets after ≈: the same amount, converted by molar mass.

Assays:
[1] = target: human soluble guanylate cyclase alpha 1 and beta 1 subunits (sGC) (Homo sapiens (Human), UniProt Q02108+Q02153); assay: sGC cellular activator assay (cGMP, HTRF), in the presence and absence of 50% human serum; format: cell-based; conditions: CHO cells stably expressing human sGC alpha 1/beta 1, preincubated with 40 microM ODQ; cGMP by HTRF; Table 2 does not state whether with or without 50% human serum
Method in brief: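 First, CHO-sGC (human α1β1) cells get 1 h ODQ at 40 microM with IBMX and 0.1% BSA. Finally, cGMP is quantified by HTRF and EC50 computed.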

physchem = conditions: kinetic from dmso stock
Procedure: Solubility is measured by the following method.
100 uL, 10 mM DMSO stock solution of each compound is prepared in a 96 well plate format. The experiment is done in single determination at 3 pH values (2.2, 4.5 and 6.8). For each pH and one reference, 40 uL of each compound is needed.
McIlvaine pH 2.2: To 2.076 g citric acid monohydrate and 0.043 g Na2HPO4×2H2O add 100 ml deionized water
McIlvaine pH 4.5: To 1.166 g citric acid monohydrate and 1.585 g Na2HPO4×2H2O add 100 ml deionized water
McIlvaine pH 6.8: To 0.476 g citric acid monohydrate and 2.753 g Na2HPO4×2H2O add 100 ml deionized water
With a suitable liquid handling device (Multipette® or a liquid handler) 390 uL of each buffer solution and 10 uL of compound is added to each well of a 96 deep well plate. The plates are covered firmly and shaken for 24 h on an over head shaker (at 54 RPM) at room temperature. The DMSO content in the final buffer is 2.5% v/v.
After 24 h the plates are centrifuged to remove droplets on the lid before opening (for ˜5 min at 2500 RPM).
The filtration is done under vacuum with Millipore 96 well filter plate. Filtrate is collected in a deep well plate and transferred to a suitable plate for UPLC analysis.
The reference plate is prepared by adding 10 uL of compound to 390 uL of 50:50 acetonitrile/water in a 96 deep well plate and transferred to a suitable plate for UPLC analysis. Wells are checked visually for precipitation, any presence noted under comments in reported results.
The samples are measured with UPLC-UV using the chromatographic method described below.
Waters Empower®2 software is used for generating Sample Sets (according to the plate layout), Sample Set Methods and Instrument Methods.
One Sample Set comprises the methods for three 96 well plates (one reference plate and two sample plates, and includes one Sample Set Method and one Instrument Method).
Data Processing and Analysis
The UV chromatograms collected at 254 nm are integrated and processed.
It is assumed that the compound is completely dissolved in the reference solution (50:50 acetonitrile/water)

[2] = Human liver microsome (HLM) metabolic stability assay; format: in vitro ADME; conditions: human liver microsomes
Method in brief: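 Remaining parent measured by LC/MS/MS (ESI, MRM) at 5, 15, 30 and 60 min relative to 0 min. Incubation: 1 uM compound, HLMs, NADPH-started, 37° C., 60 min total, single replicate. Slope of ln(% remaining) gives t1/2 = 0.693/slope, then CLint, CLh and % Qh.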

[3] = pH 2.2, aqueous buffer, Solubility (pH 2.2)
[4] = pH 4.5, aqueous buffer, Solubility (pH 4.5)
[5] = pH 6.8, aqueous buffer, Solubility (pH 6.8)

human soluble guanylate cyclase alpha 1 and beta 1 subunits (sGC), sequence (Q02108 whole entry partner): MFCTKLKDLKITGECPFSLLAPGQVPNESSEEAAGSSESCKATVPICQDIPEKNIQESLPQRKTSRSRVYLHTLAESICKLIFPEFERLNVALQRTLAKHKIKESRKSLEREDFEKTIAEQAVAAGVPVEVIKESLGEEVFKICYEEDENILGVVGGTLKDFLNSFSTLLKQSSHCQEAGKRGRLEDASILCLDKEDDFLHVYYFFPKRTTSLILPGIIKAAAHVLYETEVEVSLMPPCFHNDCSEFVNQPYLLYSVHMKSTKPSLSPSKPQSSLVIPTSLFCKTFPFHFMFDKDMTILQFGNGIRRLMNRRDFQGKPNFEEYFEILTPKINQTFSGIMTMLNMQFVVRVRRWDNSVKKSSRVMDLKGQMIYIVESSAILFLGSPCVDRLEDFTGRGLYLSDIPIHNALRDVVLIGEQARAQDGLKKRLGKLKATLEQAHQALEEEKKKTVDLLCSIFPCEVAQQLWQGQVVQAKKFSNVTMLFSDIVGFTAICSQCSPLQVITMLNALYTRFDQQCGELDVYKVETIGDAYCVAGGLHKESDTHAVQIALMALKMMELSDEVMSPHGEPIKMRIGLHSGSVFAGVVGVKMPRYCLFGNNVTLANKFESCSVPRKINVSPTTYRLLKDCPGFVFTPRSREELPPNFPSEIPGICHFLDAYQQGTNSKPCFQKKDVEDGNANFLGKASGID
human soluble guanylate cyclase alpha 1 and beta 1 subunits (sGC), sequence (Q02153 whole entry): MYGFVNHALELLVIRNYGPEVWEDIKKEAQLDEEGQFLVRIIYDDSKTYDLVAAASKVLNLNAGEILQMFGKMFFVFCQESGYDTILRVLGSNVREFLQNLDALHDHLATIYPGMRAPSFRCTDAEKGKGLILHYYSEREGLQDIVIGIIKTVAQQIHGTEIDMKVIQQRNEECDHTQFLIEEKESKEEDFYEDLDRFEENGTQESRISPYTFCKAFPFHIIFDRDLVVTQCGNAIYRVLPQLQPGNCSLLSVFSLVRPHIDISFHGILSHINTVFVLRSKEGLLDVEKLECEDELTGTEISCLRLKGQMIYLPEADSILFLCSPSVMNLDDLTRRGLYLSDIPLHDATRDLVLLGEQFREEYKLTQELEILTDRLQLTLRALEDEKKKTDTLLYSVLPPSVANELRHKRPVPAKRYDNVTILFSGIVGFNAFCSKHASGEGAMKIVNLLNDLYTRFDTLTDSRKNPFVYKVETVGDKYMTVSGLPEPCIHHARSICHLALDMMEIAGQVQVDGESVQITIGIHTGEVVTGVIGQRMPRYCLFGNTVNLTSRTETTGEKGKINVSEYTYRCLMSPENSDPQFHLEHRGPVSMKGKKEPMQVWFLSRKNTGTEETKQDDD

Row | SMILES | pEC50 [1] | solubility at 24 h (physchem; [3]) [µg/mL] | solubility at 24 h (physchem; [4]) [µg/mL] | solubility at 24 h (physchem; [5]) [µg/mL] | Metabolic stability (Qh %), % hepatic blood flow [2] [%]
1 | CCc1cc(COc2ccc(C)cc2-c2cccc(N3CC[C@H](C(=O)O)[C@H](OC)C3)n2)cc2c1CN(C1CCOCC1)CC2 [Compound 79] | 7.60 | 140 (≈ 233 µM) | 120 (≈ 200 µM) | 91 (≈ 152 µM) | <24
2 | Cc1cccc(-c2csc(N3C[C@@H]4C[C@]4(C(=O)O)C3)n2)c1OCc1ccc2c(c1C)CCN(C1COC1)C2 [Compound 138] | 7.74 | 100 (≈ 188 µM) | 59 (≈ 111 µM) | 65 (≈ 122 µM) | <24
3 | Cc1cc(COc2c(C)cccc2-c2csc(N3CC[C@@]4(C(=O)O)C[C@H]4C3)n2)cc2c1CN(C1CCC(F)(F)CC1)CC2 [Compound 303] | 8.70 | 141 (≈ 232 µM) | 16.4 (≈ 27 µM) | 1 (≈ 1.65 µM) | 79
4 | CCO[C@@H]1CN(c2nc(-c3cccc(C)c3OCc3cc(C)c4c(c3F)CCN(C3CCOCC3)C4)cs2)CC[C@@H]1C(=O)O [Compound 241] | 8.70 | 129 (≈ 207 µM) | 98.5 (≈ 158 µM) | 92.2 (≈ 148 µM) | 42.5
5 | CCO[C@@H]1CN(c2nc(-c3cccc(C)c3OCc3cc4c(c(OC)c3)CN(C3CCOCC3)CC4)cs2)CC[C@@H]1C(=O)O [Compound 228] | 8.22 | 148 (≈ 239 µM) | 114 (≈ 183 µM) | 107 (≈ 172 µM) | <24
6 | Cc1cc(C)c(OCc2ccc3c(c2C)CCN(C2CCOCC2)C3)c(-c2csc(N3C[C@@H]4C[C@]4(C(=O)O)C3)n2)c1 [Compound 152] | 7.15 | 110 (≈ 192 µM) | 70 (≈ 122 µM) | 53 (≈ 92.4 µM) | <24
7 | CO[C@@H]1CN(c2nc(-c3cc(F)cc(C)c3OCc3ccc4c(c3C)CCN(C3COC3)CC4)cs2)CC[C@@H]1C(=O)O [Compound 327] | 8.30 | 99.8 (≈ 168 µM) | 51.8 (≈ 87 µM) | 59.1 (≈ 99.2 µM) | 61
8 | Cc1ccc(OCc2cc(C)c3c(c2C)CCN(C2CCCOC2)C3)c(-c2csc(N3CC[C@@]4(C(=O)O)C[C@H]4C3)n2)c1 (some centres unmarked) [Compound 128] | 8.05 | 120 (≈ 204 µM) | 6.3 (≈ 10.7 µM) | 0.3 (≈ 0.51 µM) | <24
9 | CO[C@H]1CN(c2nc(-c3cc(C)ccc3OCc3cc(C)c4c(c3F)CCN(C3CCOCC3)C4)cs2)CC[C@H]1C(=O)O [Compound 253] | 8.05 | 127 (≈ 208 µM) | 7.7 (≈ 12.6 µM) | 1.1 (≈ 1.8 µM) | <24
10 | CO[C@H]1CN(c2cccc(-c3cc(C)ccc3OCc3ccc4c(c3C)CCN(C3CCOCC3)CC4)n2)CC[C@H]1C(=O)O [Compound 73] | 7.24 | 110 (≈ 183 µM) | 93 (≈ 155 µM) | 69 (≈ 115 µM) | 28
11 | Cc1cc(COc2c(C)cccc2-c2csc(N3CC[C@@]4(C(=O)O)C[C@H]4C3)n2)c(C)c2c1CN(CC1COCCO1)CC2 (some centres unmarked) [Compound 98] | 9.00 | 120 (≈ 199 µM) | 75 (≈ 124 µM) | 31 (≈ 51.3 µM) | 48
12 | CO[C@H]1CN(c2nc(-c3cccc(C)c3OCc3ccc4c(c3C)CCN(C3COC3)CC4)cs2)CC[C@H]1C(=O)O [Compound 287] | 7.89 | 120 (≈ 207 µM) | 72.7 (≈ 126 µM) | 71.7 (≈ 124 µM) | <24
13 | Cc1ccc(OCc2ccc3c(c2C)CCN(C2CCOCC2)C3)c(-c2cccc(N3C[C@@H]4C[C@]4(C(=O)O)C3)n2)c1 [Compound 35] | 7.35 | 100 (≈ 181 µM) | 93 (≈ 168 µM) | 6.4 (≈ 11.6 µM) | <24
14 | Cc1cc(COc2c(C)cccc2-c2csc(N3CC[C@@]4(C(=O)O)C[C@H]4C3)n2)c(C)c2c1CN(C1CCOCC1)CC2 [Compound 101] | 8.52 | 120 (≈ 204 µM) | 79 (≈ 134 µM) | 38 (≈ 64.6 µM) | 61
15 | Cc1cccc(-c2cccc(N3C[C@@H]4C[C@]4(C(=O)O)C3)n2)c1OCc1ccc2c(c1)CCN(C1COC1)CC2 [Compound 32] | 8.40 | 120 (≈ 228 µM) | 88 (≈ 167 µM) | 50 (≈ 95.1 µM) | <24
16 | COc1cc(COc2ccc(C)cc2-c2csc(N3CC[C@@H](C(=O)O)[C@@H](OC)C3)n2)c(F)c2c1CN(C1CCOCC1)CC2 [Compound 271] | 8.30 | 134 (≈ 214 µM) | 66.6 (≈ 106 µM) | 32.8 (≈ 52.4 µM) | <24
17 | O=C(O)[C@@]12CCN(c3nc(-c4ccccc4OCc4ccc5c(c4)CCN(C4CCOCC4)C5)cs3)C[C@@H]1C2 [Compound 82] | 8.00 | 100 (≈ 183 µM) | 40 (≈ 73.3 µM) | 22 (≈ 40.3 µM) | <24
18 | CO[C@@H]1CN(c2cccc(-c3cc(C)ccc3OCc3ccc4c(c3C)CCN(C3CCOCC3)CC4)n2)CC[C@@H]1C(=O)O [Compound 81] | 7.52 | > 160 | > 160 | 91 (≈ 152 µM) | 30
19 | Cc1cccc(-c2csc(N3C[C@@H]4C[C@]4(C(=O)O)C3)n2)c1OCc1cc(C#N)c2c(c1)CCN(C1COC1)C2 [Compound 141] | 7.47 | 110 (≈ 203 µM) | 38 (≈ 70 µM) | 81 (≈ 149 µM) | <24

Continued, values first:

Row | pEC50 [1] | solubility at 24 h (physchem; [3]) [µg/mL] | solubility at 24 h (physchem; [4]) [µg/mL] | solubility at 24 h (physchem; [5]) [µg/mL] | Metabolic stability (Qh %), % hepatic blood flow [2] [%] | SMILES
20 | 7.74 | 110 (≈ 184 µM) | 96 (≈ 161 µM) | 77 (≈ 129 µM) | <24 | COC[C@H]1N(c2cccc(-c3cccc(C)c3OCc3ccc4c(c3C)CCN(C3CCOCC3)C4)n2)C[C@@H]2C[C@@]21C(=O)O [Compound 46]
21 | 7.19 | 128 (≈ 203 µM) | 100 (≈ 160 µM) | 82.8 (≈ 132 µM) | <24 | COCc1cc(COc2c(C)cccc2-c2cccc(N3C[C@@H]4C[C@]4(C(=O)O)[C@H]3COC)n2)cc2c1CN(C1CCOCC1)CC2 [Compound 279]
22 | 9.00 | 116 (≈ 193 µM) | 82.3 (≈ 137 µM) | 63.1 (≈ 105 µM) | 25 | CO[C@@H]1CN(c2cccc(-c3cccc(C)c3OCc3cc(C)c4c(c3)CCN(C3CCOCC3)CC4)n2)CC[C@@H]1C(=O)O [Compound 293]
23 | 6.82 | 134 (≈ 229 µM) | 90.8 (≈ 155 µM) | 70.8 (≈ 121 µM) | 31 | CO[C@@H]1CN(c2cccc(-c3cccc(C)c3OCc3cc(C)c4c(c3)CCN(C3CCOCC3)C4)n2)CC[C@H]1C(=O)O [Compound 299]
24 | 8.10 | 110 (≈ 180 µM) | 96 (≈ 157 µM) | 74 (≈ 121 µM) | <24 | COC[C@H]1N(c2cccc(-c3cccc(C)c3OCc3ccc4c(c3C)CCN(C3CCOCC3)CC4)n2)C[C@@H]2C[C@@]21C(=O)O [Compound 61]
25 | 6.28 | 115 (≈ 188 µM) | 110 (≈ 179 µM) | 98.9 (≈ 161 µM) | <24 | COC[C@H]1N(c2cccc(-c3cccc(C)c3OCc3cc(C)c4c(c3)OCCN(C3CCOCC3)C4)n2)C[C@@H]2C[C@@]21C(=O)O [Compound 314]
26 | 7.74 | 137 (≈ 224 µM) | 135 (≈ 221 µM) | 119 (≈ 195 µM) | <24 | CCOC[C@H]1N(c2cccc(-c3cccc(C)c3OCc3cc(C)c4c(c3)CCN(C3CCOCC3)C4)n2)C[C@@H]2C[C@@]21C(=O)O [Compound 315]
27 | 7.80 | 130 (≈ 223 µM) | 90 (≈ 154 µM) | 81 (≈ 139 µM) | 39 | CCc1cc(COc2c(C)cccc2-c2cccc(N3C[C@@H]4C[C@]4(C(=O)O)[C@H]3COC)n2)cc2c1CN(C1COC1)CC2 [Compound 54]
28 | 7.64 | 100 (≈ 175 µM) | 92 (≈ 161 µM) | 71 (≈ 124 µM) | <24 | CO[C@@H]1CN(c2cccc(-c3cccc(C)c3OCc3ccc4c(c3)CCN(C3CCOCC3)C4)n2)CC[C@@H]1C(=O)O [Compound 67]
29 | 8.70 | 110 (≈ 194 µM) | 90 (≈ 159 µM) | 51 (≈ 89.8 µM) | 51 | Cc1cc(COc2c(C)cccc2-c2cccc(N3CC[C@@]4(C(=O)O)C[C@H]4C3)n2)cc2c1CN(C1CCOCC1)CC2 [Compound 15]
30 | 8.10 | 120 (≈ 206 µM) | 96 (≈ 164 µM) | 77 (≈ 132 µM) | 26 | COC[C@H]1N(c2cccc(-c3cccc(C)c3OCc3cc(C)c4c(c3)CCN(C3CCOC3)C4)n2)C[C@@H]2C[C@@]21C(=O)O (some centres unmarked) [Compound 50]
31 | 6.80 | 149 (≈ 242 µM) | 119 (≈ 193 µM) | 88.5 (≈ 144 µM) | <24 | COCc1cc(COc2c(C)cccc2-c2cccc(N3CC[C@H](C(=O)O)[C@H](OC)C3)n2)cc2c1CN(C1CCOCC1)CC2 [Compound 286]
